Positions of bridges follow the written chain, without caps; N, C: chain ends. Residues, ends and D or L forms follow the SMILES beside them.
What was measured:
hNaV1.1 to hNaV1.7 = assay: NaV subtype preference across NaV1.1 to NaV1.7, patch clamp; assay type: cell-based, human; settings: NaV1.1 to NaV1.7, closed-state voltage protocol
Procedure: Unless otherwise specified, all cell culture reagents were obtained from Life Technologies (Carlsbad, CA, USA). The human neuroblastoma cell line SH-SY5Y (ATCC CRL-2266; Manassas, VA, USA) was maintained in RPMI medium supplemented with 15% fetal bovine serum (FBS) and 2 mM L-glutamine. HEK293 cells stably expressing human NaV channel isoforms together with the β1 auxiliary subunit (SB Drug Discovery, Glasgow, UK) were propagated in Minimal Essential Medium (MEM; Sigma-Aldrich, St. Louis, MO, USA) containing 10% FBS, 100 U/mL penicillin, 100 µg/mL streptomycin, 2 mM L-glutamine, and selective antibiotics (blasticidin, geneticin, and zeocin) at concentrations recommended by the supplier. HEK293T cells expressing the human CaV3.2 channel (a generous gift from Prof. Emmanuel Bourinet, Institut de Génomique Fonctionnelle, Université de Montpellier, France, and Prof. Edward Perez-Reyes, University of Virginia School of Medicine, USA) were grown in Dulbecco’s MEM supplemented with 10% FBS, 100 U/mL penicillin, 100 µg/mL streptomycin, and 750 µg/mL geneticin.
Sodium channel currents were recorded from HEK293 cells expressing human NaV isoforms together with the β1 auxiliary subunit (SB Drug Discovery, Glasgow, UK) using the QPatch 16X automated whole-cell patch-clamp platform (Sophion Bioscience A/S, Ballerup, Denmark). The external recording solution contained (in mM) the following: 140 NaCl, 3 KCl, 1 CaCl2, 1 MgCl2, 0.1 CdCl2, 20 tetraethylammonium chloride (TEA-Cl), and 5 HEPES; pH was adjusted to 7.3 and osmolarity to 320 mOsm. The internal (pipette) solution consisted of (in mM) the following: 140 CsF, 10 NaCl, 10 HEPES, and 1/5 EGTA/CsOH, also adjusted to pH 7.3 and 320 mOsm. […] For determining the potency of Oa1a peptides to inhibit peak current, the maximum peak current within the 20 ms at 0 mV was measured. For determining the potency of Oa1a-NH2 to slow fast inactivation, peak current values were measured at 20 ms of the 0 mV depolarization step. […]
For calcium influx experiments, bioactivity comparisons between venom fractions and controls were based on the difference between the maximal and minimal fluorescence intensity values obtained from single-replicate assays. […] Reversibility and dissociation kinetics were analyzed by fitting data with a single-phase exponential decay model, while voltage-dependence of steady-state activation and inactivation parameters were derived from Boltzmann sigmoid fits of normalized conductance (G/Gmax) or current (I/Imax) values to determine the half-activation or half-inactivation voltages (V50). Data are expressed as mean ± SEM, where n represents the number of individual cells analyzed.

NaV1.3 = NaV1.3 (Homo sapiens, UniProt Q9NY46); assay: Slowing of fast inactivation of NaV1.3; assay type: cell-based
Chain of NaV1.3 (Q9NY46 whole entry, canonical isoform): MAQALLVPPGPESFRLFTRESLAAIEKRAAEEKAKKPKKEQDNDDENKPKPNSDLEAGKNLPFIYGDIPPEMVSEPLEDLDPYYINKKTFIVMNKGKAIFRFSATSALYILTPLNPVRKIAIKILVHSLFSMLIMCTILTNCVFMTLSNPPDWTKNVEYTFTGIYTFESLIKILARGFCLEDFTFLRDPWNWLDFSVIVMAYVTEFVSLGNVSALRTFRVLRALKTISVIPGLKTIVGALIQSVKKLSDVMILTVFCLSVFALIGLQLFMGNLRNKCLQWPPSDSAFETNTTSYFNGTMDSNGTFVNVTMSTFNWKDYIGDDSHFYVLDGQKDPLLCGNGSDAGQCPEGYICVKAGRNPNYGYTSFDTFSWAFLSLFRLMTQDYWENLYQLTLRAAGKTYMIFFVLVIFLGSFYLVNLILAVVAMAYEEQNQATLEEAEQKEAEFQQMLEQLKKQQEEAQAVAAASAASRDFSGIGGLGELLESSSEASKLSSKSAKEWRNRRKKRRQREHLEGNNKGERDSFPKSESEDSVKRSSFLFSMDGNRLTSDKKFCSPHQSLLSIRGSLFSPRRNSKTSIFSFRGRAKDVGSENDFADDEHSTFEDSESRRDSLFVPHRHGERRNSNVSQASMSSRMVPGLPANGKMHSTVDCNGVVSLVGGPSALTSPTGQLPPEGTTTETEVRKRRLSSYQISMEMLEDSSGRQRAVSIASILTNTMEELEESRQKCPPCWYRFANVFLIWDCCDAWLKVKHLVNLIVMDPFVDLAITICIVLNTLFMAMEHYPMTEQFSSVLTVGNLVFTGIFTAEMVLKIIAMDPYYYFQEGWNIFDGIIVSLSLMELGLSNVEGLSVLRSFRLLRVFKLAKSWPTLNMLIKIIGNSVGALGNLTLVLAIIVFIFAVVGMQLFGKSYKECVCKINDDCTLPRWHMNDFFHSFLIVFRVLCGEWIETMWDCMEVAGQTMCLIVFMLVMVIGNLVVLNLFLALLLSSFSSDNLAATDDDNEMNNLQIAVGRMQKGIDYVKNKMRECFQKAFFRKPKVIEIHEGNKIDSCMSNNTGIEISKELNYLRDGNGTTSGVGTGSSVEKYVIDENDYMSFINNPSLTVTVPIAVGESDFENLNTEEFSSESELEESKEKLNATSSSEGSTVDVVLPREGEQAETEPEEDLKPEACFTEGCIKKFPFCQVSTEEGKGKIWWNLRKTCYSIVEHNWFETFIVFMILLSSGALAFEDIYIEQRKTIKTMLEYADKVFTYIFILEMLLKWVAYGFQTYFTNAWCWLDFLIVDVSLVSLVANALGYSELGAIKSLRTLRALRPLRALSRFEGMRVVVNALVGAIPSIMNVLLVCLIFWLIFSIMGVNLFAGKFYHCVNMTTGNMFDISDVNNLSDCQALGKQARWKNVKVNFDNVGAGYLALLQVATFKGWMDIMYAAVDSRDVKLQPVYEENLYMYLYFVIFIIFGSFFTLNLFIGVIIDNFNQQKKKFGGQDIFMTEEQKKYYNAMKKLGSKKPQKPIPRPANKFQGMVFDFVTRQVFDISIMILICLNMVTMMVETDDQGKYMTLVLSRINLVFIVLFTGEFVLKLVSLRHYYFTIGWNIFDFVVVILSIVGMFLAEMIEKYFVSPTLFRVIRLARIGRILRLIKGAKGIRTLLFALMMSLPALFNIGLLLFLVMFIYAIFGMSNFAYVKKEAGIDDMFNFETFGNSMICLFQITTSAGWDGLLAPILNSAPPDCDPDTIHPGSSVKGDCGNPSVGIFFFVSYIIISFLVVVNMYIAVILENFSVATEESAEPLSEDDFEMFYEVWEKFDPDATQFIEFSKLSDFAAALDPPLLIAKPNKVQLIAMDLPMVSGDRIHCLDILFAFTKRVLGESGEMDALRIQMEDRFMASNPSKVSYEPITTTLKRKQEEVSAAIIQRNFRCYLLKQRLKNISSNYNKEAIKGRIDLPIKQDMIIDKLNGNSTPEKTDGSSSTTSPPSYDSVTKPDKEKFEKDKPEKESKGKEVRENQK
Chain of NaV1.3 (Q07699 19-218, further chain): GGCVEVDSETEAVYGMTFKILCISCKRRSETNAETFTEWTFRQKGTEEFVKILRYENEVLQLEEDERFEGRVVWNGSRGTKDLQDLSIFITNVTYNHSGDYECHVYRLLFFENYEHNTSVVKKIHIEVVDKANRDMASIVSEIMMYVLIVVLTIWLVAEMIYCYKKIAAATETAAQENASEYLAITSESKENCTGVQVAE
Procedure: Sodium channel currents were recorded from HEK293 cells expressing human NaV isoforms together with the β1 auxiliary subunit (SB Drug Discovery, Glasgow, UK) using the QPatch 16X automated whole-cell patch-clamp platform (Sophion Bioscience A/S, Ballerup, Denmark). The external recording solution contained (in mM) the following: 140 NaCl, 3 KCl, 1 CaCl2, 1 MgCl2, 0.1 CdCl2, 20 tetraethylammonium chloride (TEA-Cl), and 5 HEPES; pH was adjusted to 7.3 and osmolarity to 320 mOsm. The internal (pipette) solution consisted of (in mM) the following: 140 CsF, 10 NaCl, 10 HEPES, and 1/5 EGTA/CsOH, also adjusted to pH 7.3 and 320 mOsm. Cells were voltage-clamped at a holding potential of −80 mV, and inward Na^+ currents were evoked by 20 ms depolarizing pulses to 0 mV following a 200 ms hyperpolarizing prepulse to −120 mV. To obtain concentration–response curves, cells at holding potential were incubated for 5 min with increasing concentrations of Oa1a peptides. For determining the potency of Oa1a peptides to inhibit peak current, the maximum peak current within the 20 ms at 0 mV was measured. For determining the potency of Oa1a-NH2 to slow fast inactivation, peak current values were measured at 20 ms of the 0 mV depolarization step. Ion currents (INa) were plotted as I/Imax, where I = current value and Imax = highest current value within the experiment.
For calcium influx experiments, bioactivity comparisons between venom fractions and controls were based on the difference between the maximal and minimal fluorescence intensity values obtained from single-replicate assays. Electrophysiological data analysis was conducted using GraphPad Prism (version 8; GraphPad Software, San Diego, CA, USA). Nonlinear regression was applied to fit the concentration–response relationships using a variable Hill slope: log(inhibitor) versus normalized response for determining IC50 values, and log(agonist) versus normalized response for EC50 calculations. Reversibility and dissociation kinetics were analyzed by fitting data with a single-phase exponential decay model, while voltage-dependence of steady-state activation and inactivation parameters were derived from Boltzmann sigmoid fits of normalized conductance (G/Gmax) or current (I/Imax) values to determine the half-activation or half-inactivation voltages (V50). Data are expressed as mean ± SEM, where n represents the number of individual cells analyzed.

**Q.** CC(C)C[C@@H]1NC(=O)[C@H](Cc2ccccc2)NC(=O)[C@H](Cc2ccc(O)cc2)NC(=O)[C@H](CCCNC(=N)N)NC(=O)[C@@H](NC(=O)[C@H](CCC(=O)O)NC(=O)CN)CSSC[C@@H]2NC(=O)[C@@H]3CSSC[C@@H](C(=O)N[C@H](C(=O)N[C@@H](Cc4c[nH]c5ccccc45)C(=O)N[C@@H](CC(=O)O)C(=O)N[C@@H](Cc4c[nH]c5ccccc45)C(=O)N[C@H](C(=O)N[C@@H](Cc4ccccc4)C(=O)O)[C@@H](C)O)C(C)C)NC(=O)[C@H](Cc4c[nH]c5ccccc45)NC(=O)[C@H](CCC(N)=O)NC(=O)[C@H](Cc4c[nH]cn4)NC(=O)[C@H](CCCCN)NC(=O)[C@H](CC(N)=O)NC(=O)[C@H](Cc4c[nH]cn4)NC(=O)[C@H](CSSC[C@H](NC(=O)CNC(=O)CNC1=O)C(=O)N[C@@H](CO)C(=O)N[C@@H](CCC(N)=O)C(=O)NCC(=O)N[C@@H](CCC(=O)O)C(=O)N[C@@H](CCCCN)C(=O)N3)NC(=O)[C@H](C(C)C)NC(=O)[C@H](CC(C)C)NC(=O)[C@H](Cc1c[nH]cn1)NC(=O)[C@H](CCC(=O)O)NC2=O [rOa1a] (H-GECRYFLGGCSQGEKCCEHLVCHNKHQWCVWDWTF-OH; disulfide 3-17, 10-22, 16-29; N-terminus and C-terminus assumed) was tested. Which “NaV subtype preference of inhibition (in words)” value (hNaV1.1 to hNaV1.7) did it give?
**A.** Its value is “preference for inhibiting NaV1.2, NaV1.3, NaV1.6, and NaV1.7”.

**Q.** And the “NaV subtype preference of inhibition (in words)” value (hNaV1.1 to hNaV1.7; listed as recombinant Oa1a)?
**A.** The value was “preference for inhibiting NaV1.2, NaV1.6, and NaV1.7”.

**Q.** And the “Slowing of fast inactivation of NaV1.3 (in words)” value (NaV1.3; closed-state voltage protocol, current traces, concentrations up to those of IC50 curves)?
**A.** Its value is “strongly slowing the fast inactivation of NaV1.3”.

**Q.** What about the “Fold less potency in slowing fast inactivation of NaV1.3 compared to sOa1a-NH2” value (NaV1.3; ratio of EC50 values) of the same compound?
**A.** Its value is 4.8 fold.

From paper PMC12656268, “Venom Peptides Across Asian and American Tarantulas Utilize Dual Pharmacology to Target Activation and Fast Inactivation of Voltage-Gated Sodium Channels” (Toxins, 2025)
